Measured values reported in ChEMBL document CHEMBL5729639, “FGFR4 inhibitor and preparation method and use thereof” (2023).

target: Fibroblast growth factor receptor 1 (Homo sapiens, UniProt P11362); assay: Enzymologic Experiment of FGFR1: In this experiment, the inhibitory effect of the compounds on FGFR1 kinase activity was tested by a fluorescence resonance energy transfer (TR-FRET) method, and the half maximal inhibitory concentration (IC50) of the compounds on the FGFR1 kinase activity was determined. 1) 1˜5 μL of FGFR1 enzymatic solution was added to a 384-well plate, and the final concentration of the enzyme was 0.1˜5 nM. 2) 1˜5 μL of diluted solution in gradient of the compound was added.3) 1˜5 μL of a substrate mixture containing substrate polypeptide with a final concentration of 5˜50 nM and ATP with a final concentration of 10˜200 μM was added. 4) The mixture was incubated for 0.5-3 hours at room temperature. 5) 10 μL of EDTA and a test solution comprising labeled antibody were added, and the plate was incubated for 1 hour at room temperature. 6) The fluorescence signal values of each plate were determined by a microplate reader at 665 nm. 7) The inhibition rates were calculated according to the fluorescence signal values.
Sequence (P11362 whole entry): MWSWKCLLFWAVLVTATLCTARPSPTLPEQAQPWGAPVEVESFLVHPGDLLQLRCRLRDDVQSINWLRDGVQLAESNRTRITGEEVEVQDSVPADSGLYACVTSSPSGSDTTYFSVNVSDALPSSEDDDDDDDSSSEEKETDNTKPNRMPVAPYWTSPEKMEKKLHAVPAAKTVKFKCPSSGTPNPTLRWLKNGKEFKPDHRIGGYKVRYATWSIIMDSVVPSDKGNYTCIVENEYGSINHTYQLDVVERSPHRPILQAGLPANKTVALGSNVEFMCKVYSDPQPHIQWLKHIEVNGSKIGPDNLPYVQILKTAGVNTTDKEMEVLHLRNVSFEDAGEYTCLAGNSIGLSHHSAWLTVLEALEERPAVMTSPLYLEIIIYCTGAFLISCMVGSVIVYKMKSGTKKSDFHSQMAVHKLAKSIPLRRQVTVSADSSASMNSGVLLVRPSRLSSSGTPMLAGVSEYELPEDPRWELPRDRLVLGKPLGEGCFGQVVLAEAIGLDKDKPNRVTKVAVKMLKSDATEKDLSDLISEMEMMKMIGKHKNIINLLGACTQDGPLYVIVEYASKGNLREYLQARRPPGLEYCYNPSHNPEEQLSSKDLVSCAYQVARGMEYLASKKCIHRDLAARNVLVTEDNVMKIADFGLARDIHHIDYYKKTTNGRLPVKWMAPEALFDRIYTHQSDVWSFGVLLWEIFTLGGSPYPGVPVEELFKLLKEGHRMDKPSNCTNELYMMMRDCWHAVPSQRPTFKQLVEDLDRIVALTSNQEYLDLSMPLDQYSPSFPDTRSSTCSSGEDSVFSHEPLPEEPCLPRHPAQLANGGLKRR

IC50 [µM]	Structure (SMILES)
> 10	COCCNc1cc(NC(=O)N2CCCc3cc(CN(C=O)C[C@@H]4CCCO4)c(C=O)nc32)ncc1C#N
> 10	COCCNc1cc(NC(=O)N2CCCc3cc(CN(C=O)[C@H]4CCOC4)c(C=O)nc32)ncc1C#N
> 10	COC[C@@H](C)Nc1cc(NC(=O)N2CCCc3cc(CN4CC[C@@H](OC)C4=O)c(C=O)nc32)ncc1C#N
> 10	COCCNc1cc(NC(=O)N2CCCc3cc(CN(C=O)C[C@H]4CCCO4)c(C=O)nc32)ncc1C#N
